Laboratory results: publication PMC9963409, “Structural Insight into Catalysis by the Flavin-Dependent NADH Oxidase (Pden_5119) of Paracoccus denitrificans” (International Journal of Molecular Sciences, 2023)
One block for each molecule: values may come before it.

Assays:
Pden_5119 [1] = molecular target: T1, Pden_5119 (Paracoccus denitrificans, UniProt A1BCD5); assay: intrinsic protein fluorescence quenching titration; format: binding; conditions: read-out: Kd^FMN
T1 construct: C-terminal His6 tag kept, expressed in E. coli BL21(DE3)pLysS; subunit 20596 g/mol; dimer in solution; contains no cysteine
Source text: (§1) intrinsic protein fluorescence quenching titration on Pden_5119

Pden_5119 [2] = molecular target: T2, Pden_5119 (Paracoccus denitrificans, UniProt A1BCD5, H117A); assay: intrinsic protein fluorescence quenching titration; format: binding; conditions: read-out: Kd^FMN
T2 construct: C-terminal His6 tag kept, expressed in E. coli BL21(DE3)pLysS; subunit 20596 g/mol; dimer in solution; contains no cysteine
Source text: as §1

Pden_5119 [3] = molecular target: T3, Pden_5119 (Paracoccus denitrificans, UniProt A1BCD5, K82A); assay: intrinsic protein fluorescence quenching titration; format: binding; conditions: read-out: Kd^FMN
T3 construct: C-terminal His6 tag kept, expressed in E. coli BL21(DE3)pLysS; subunit 20596 g/mol; dimer in solution; contains no cysteine
Source text: as §1

Pden_5119 [4] = molecular target: T4, Pden_5119 (Paracoccus denitrificans, UniProt A1BCD5, R116A); assay: intrinsic protein fluorescence quenching titration; format: binding; conditions: read-out: Kd^FMN
T4 construct: C-terminal His6 tag kept, expressed in E. coli BL21(DE3)pLysS; subunit 20596 g/mol; dimer in solution; contains no cysteine
Source text: as §1

Pden_5119 [5] = molecular target: T5, Pden_5119 (Paracoccus denitrificans, UniProt A1BCD5, R116K); assay: intrinsic protein fluorescence quenching titration; format: binding; conditions: read-out: Kd^FMN
T5 construct: C-terminal His6 tag kept, expressed in E. coli BL21(DE3)pLysS; subunit 20596 g/mol; dimer in solution; contains no cysteine
Source text: as §1

Pden_5119 [6] = molecular target: T2, Pden_5119; assay: stopped-flow reduction of enzyme-bound FMN at […] nm, hyperbolic fit of kobs; format: biochemical; conditions: anaerobic reductive half-reaction of enzyme-FMN complex; rapid-equilibrium binding step; 0.1 M sodium phosphate pH 7.3; 10 °C; read-out: KNADH
Pden_5119 [7] = molecular target: T5, Pden_5119; assay: as above; format: biochemical; conditions: anaerobic reductive half-reaction of enzyme-FMN complex; rapid-equilibrium binding step; 0.1 M sodium phosphate pH 7.3; 10 °C; read-out: KNADH
Pden_5119 [8] = molecular target: T4, Pden_5119; assay: as above; format: biochemical; conditions: anaerobic reductive half-reaction of enzyme-FMN complex; rapid-equilibrium binding step; 0.1 M sodium phosphate pH 7.3; 10 °C; read-out: KNADH
Pden_5119 [9] = molecular target: T3, Pden_5119; assay: as above; format: biochemical; conditions: anaerobic reductive half-reaction of enzyme-FMN complex; rapid-equilibrium binding step; 0.1 M sodium phosphate pH 7.3; 10 °C; read-out: KNADH
Pden_5119 [10] = molecular target: T1, Pden_5119; assay: as above; format: biochemical; conditions: anaerobic reductive half-reaction of enzyme-FMN complex; rapid-equilibrium binding step; 0.1 M sodium phosphate pH 7.3; 10 °C; read-out: KNADH
[11] = molecular target: the molecule itself; assay: SAXS; protein at 1.5 mg/mL (73 μM in monomer); ab initio envelope (DAMMIN) and CRYSOL fit of a dimeric homology model to the scattering curve

T2 sequence (A1BCD5 entry or part of it H117A): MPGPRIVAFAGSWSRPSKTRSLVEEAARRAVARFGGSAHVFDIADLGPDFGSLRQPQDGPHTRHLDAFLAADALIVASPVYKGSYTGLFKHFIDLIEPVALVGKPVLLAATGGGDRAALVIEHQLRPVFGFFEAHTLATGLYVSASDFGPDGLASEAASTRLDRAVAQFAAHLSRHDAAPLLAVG
T4 sequence (A1BCD5 entry or part of it R116A): as the sequence (A1BCD5 entry or part of it H117A) above, with R116A, A117H counted along it
T3 sequence (A1BCD5 entry or part of it K82A): as the sequence (A1BCD5 entry or part of it H117A) above, with K82A, A117H counted along it
T5 sequence (A1BCD5 entry or part of it R116K): as the sequence (A1BCD5 entry or part of it H117A) above, with R116K, A117H counted along it

Kd (Pden_5119 [1]): 3.8 ± 0.4 µM
Kd (Pden_5119 [2]): 9.1 ± 0.6 µM
Kd (Pden_5119 [3]): 6.8 ± 3.4 µM
Kd (Pden_5119 [4]): 3.5 ± 1.5 µM
Kd (Pden_5119 [5]): 0.6 ± 0.1 µM
Molecule: Cc1cc2nc3c(=O)[nH]c(=O)nc-3n(C[C@H](O)[C@H](O)[C@H](O)COP(=O)(O)O)c2cc1C [FMN]

Kd (Pden_5119 [6]): 40 ± 7 µM
Kd (Pden_5119 [7]): 20 ± 4 µM
Kd (Pden_5119 [8]): 39 ± 17 µM
Kd (Pden_5119 [9]): 53 ± 18 µM
Kd (Pden_5119 [10]): 19 ± 1 µM
Molecule: NC(=O)C1=CN([C@@H]2O[C@H](COP(=O)(O)OP(=O)(O)OC[C@H]3O[C@@H](n4cnc5c(N)ncnc54)[C@H](O)[C@@H]3O)[C@@H](O)[C@H]2O)C=CC1 [NADH]

B1: Pden_5119 protein (flavin-dependent NADH oxidase of Paracoccus denitrificans) (enzyme)
chain: MPGPRIVAFAGSWSRPSKTRSLVEEAARRAVARFGGSAHVFDIADLGPDFGSLRQPQDGPHTRHLDAFLAADALIVASPVYKGSYTGLFKHFIDLIEPVALVGKPVLLAATGGGDRHALVIEHQLRPVFGFFEAHTLATGLYVSASDFGPDGLASEAASTRLDRAVAQFAAHLSRHDAAPLLAVG
notes: Pden_5119, product of the gene pden_5119 of Paracoccus denitrificans; subunit molar mass 20 596 g/mol; 15 histidines per monomer including the tag; also called wild-type; not shown: His6, C-terminal, kept
stoichiometry N [11]: 2
